According to patent US20250230226A1, “PLXDC1/PLXDC2 ACTIVATORS AND THEIR USE IN THE TREATMENT OF BLOOD VESSEL DISORDERS” (THE REGENTS OF THE UNIVERSITY OF CALIFORNIA, priority 2019, published 2025):

Legend:
[1] = tested on: LL/2 lung cancer tumor endothelial cells; experiment: Lung LL2 ex vivo model of tumor angiogenesis; type: cell-based, mouse; conditions: 20 μm
Summary of the method: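 Live/dead imaging with FDA and PI, taken e.g. 48 h post-drug under fixed channel settings, measures treatment effects on endothelial cells sprouting from Lewis lung tumor explants. Explants were seeded in Matrigel drops and grown ~4 days in endothelial growth medium, 37 °C, 5% CO2, before dosing.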

[2] = tested on: choroidal endothelial cells; experiment: Ex vivo model of choroidal angiogenesis (FIG. 2); type: cell-based
Experimental: FIG. 2A-E. Comparison of compound 369 (Table 3) with the current anti-angiogenic drug in an ex vivo model of choroidal angiogenesis. A. A schematic diagram of the timeframe of the experiment. […] Treatment lasts for two days before cell death and survival are analyzed. B. Control experiment without any drug treatment at day 7. The white circle in the middle delineates the piece of choroid/RPE that was embedded to initiate neovascularization. C. […] Eylea was added at 10 μM. […] The compound was added at 10 μM. In B-D, green cells are live cells and red cells are dead cells. E. Quantitation of the experiments described in B-D. The amount of new endothelial cells in the untreated control is defined as 100%.

[3] = tested on: tumor endothelial cells; experiment: Ex vivo model of tumor angiogenesis, comparison with anti-VEGF drug and PEDF (FIG. 4); type: cell-based; conditions: cells grown 5 days, test reagents added for 2 days
Experimental: FIG. 4A-F. A comparison between an anti-VEGF drug, PEDF and two compounds that target PLXDC1/PLXDC2 in an ex vivo model of tumor angiogenesis. […] Tumor endothelial cells were grown for 5 days before test reagents were added for 2 days. Green cells are live cells and red cells are dead cells.
• 1. The day before the experiment, all necessary tools were sprayed with 70% ethanol and sterilized under UV light overnight, including blade, dissecting and micro-dissecting scissors and […]. 24-well dishes were placed at 4° C. to pre-chill plates and Matrigel was thawed, 24 hours before tumor dissection. • 2. 70% ethanol was sprayed on working bench. Two sterile petri dishes were prepared with 10 ml sterile PBS. The following steps 3 and 4 are necessary for mouse tumor models. For fresh human tumor, steps 3 and 4 are skipped. • 3. The tumor-bearing mice were euthanized. 70% ethanol was sprayed on the mouse and the tumor was removed using sterilized dissecting tools (avoid the fur). The tumor was rinsed in petri dish with sterile PBS to remove ethanol and fur. […] When the assay was ready to be analyzed for cell death (e.g., 48 hours after drug addition), the dye mixture was prepared by mixing 6 μl of green dye to stain live cells (5 mg/ml Fluorescein diacetate or FDA in DMSO) with 30 μl of red dye (2.5 mg/ml Propidium iodide or PI in PBS) to stain dead cells in an Eppendorf tube. […]

[4] = tested on: tumor blood vessels; experiment: Systemic administration in tumor-bearing mouse (FIG. 7); type: in vivo
Excerpt: FIG. 7A-D. Systemic administration of a compound that targets PLXDC1 and PLXDC2 kills existing tumor blood vessels and leads to massive tumor necrosis. […] The high specificity of the treatment is illustrated by the healthy skin blood vessels that cover the dead yellow tumor. C. The tumor from control mouse in A is cut open to reveal that it is rich in tumor blood vessels and is a live tumor. D. The tumor from compound-treated mouse in B is cut open to reveal a lack of tumor blood vessels and a necrotic tumor with yellow cheese-like appearance (coagulative necrosis). Coagulative necrosis is exactly what is expected for a treatment that can kill existing tumor blood vessels to block major blood supplies to the tumor. Precise and efficient killing of tumor blood vessels to cause massive tumor death by necrosis, which has been achieved by the compound 369 targeting PLXDC1/PLXDC2, cannot be achieved by any existing drugs or known antiangiogenic factors.
The tumor died of massive coagulative necrosis, exactly the kind of cell death caused by killing blood vessels.

SMILES: CCCCCCCCCCCCOc1ccc(S(=O)(=O)c2cnc3ccc([S+](C)[O-])cc3c2N2CCC(N3CCC(N4CCN(CCO)CC4)CC3)CC2)cc1F (stereo not drawn) [Compound 369]
- 48 hrs (morphology observations) ([1]; 48 hours, LL/2 tumor endothelial cells): * (50% or less of cells vesicularize in cell shape)
- Cell death ([1]; drug treatment for two days, ratio of red area to total endothelial cell area): 20%
- Killing of endothelial cells in choroidal angiogenesis ([2]; added at 10 μM at day 7, treatment two days): can kill the endothelial cells
- Effect on healthy tissue (choroid and retinal pigment epithelium) ([2]; added at 10 μM, two days): without affecting the healthy tissue
- Killing of existing tumor endothelial cells [3]: can kill existing tumor endothelial cells
- Killing of existing tumor blood vessels and tumor death [4]: can kill existing tumor blood vessels and lead to strong tumor death
